Test results reported in patent US20160341734A1, “USE OF FLUOROQUINOLONE ANTIBIOTICS” (POSTECH ACADEMY-INDUSTRY FOUNDATION, priority 2015, published 2016).
Where a name gives a salt, the structure may show the parent alone.

Key:
[1] = single-photon fluorescence, ultraviolet-ray area; cited from earlier work
[2] = two-photon excitation and emission spectrum of the antibiotics (femtosecond laser); format: physicochemical
Text: 3A illustrates an excitation spectrum of hydrochloride moxifloxacin and gatifloxacin. Here, an X axis represents a wavelength (nm) of a femtosecond laser light source used in the experiment, and a degree (a.u.) of two-photon excited fluorescence (TPF) at 700 nm to 800 nm which is a measuring range of a femtosecond laser wavelength is illustrated as a Y axis. Through the graph, it can be seen that hydrochloride moxifloxacin and gatifloxacin may represent fluorescent signals in the light source having a range of 700 nm to 800 nm which is a near-infrared wavelength. Further, in the case where the wavelength of the light source is 700 nm as shown in the intensity of the excited fluorescence graph of the Y axis, it can be seen that a fluorescent signal stronger than other wavelengths is shown. FIG. 3B illustrates an emission spectrum representing a fluorescence expression degree of each antibiotic when the femtosecond laser is applied to hydrochloride moxifloxacin and gatifloxacin. The X axis represents a wavelength (nm) and the Y axis represents the degree (a.u.) of the TPF. In the graph, in the hydrochloride moxifloxacin and the gatifloxacin, it can be seen that the fluorescent signals having wavelengths of 450 nm to 550 nm are frequently expressed and the wavelength of about 520 nm is expressed most strongly.

[3] = test system: corneal cells of the mouse; experiment: multi-photon fluorescence of corneal cells after dropping the antibiotic in the eye; format: in vivo
Protocol: Blab/c female mice after five or six weeks, gatifloxacin, hydrochloride moxifloxacin, and a multi-photon microscope including a biaxial scanner (a galvano scanner of x axis and a galvano scanner of y axis) to be used by a point scanning method were prepared.
In this Experimental Example, a two-photon microscope using a femtosecond laser as a light source was used and the multi-photon fluorescence was equally measured under the following condition throughout an experimental process.
Excitation wavelength: 780 nm for vigamox (moxifloxacin)
In order to compare fluorescence expression of hydrochloride moxifloxacin with auto-fluorescence expression of the corneal cells of the mouse, the corneal cells of the mouse which are not applied with hydrochloride moxifloxacin were first photographed.
The Blab/c mouse to be used in the experiment was anesthetized and then fixed to an eye holder for photographing the eye, and photographed by the two-photon microscope. Laser power was set as 30.8 mW, and in this case, the intensity of auto-fluorescence of the photographed mouse cornea was recorded.
In order to measure the fluorescence expression degree of the mouse cornea by vigamox (hydrochloride moxifloxacin), hydrochloride moxifloxacin of 10 μl was dropped in a left eye of the mouse and an eyelid was closed for 30 seconds. […]

pseudomonas = experiment: multi-photon fluorescence in bacteria; format: cell-based
Protocol: (§1) Bacteria (pseudomonas and staphylococcus) used in the experiment, hydrochloride moxifloxacin, and a biaxial scanner (a galvano scanner of x axis and a galvano scanner of y axis) to be used by a point scanning method were prepared.
(§2) In this Experimental Example, a two-photon microscope using a femtosecond laser as a light source was used, and the multi-photon fluorescence was equally measured under the following condition throughout an experimental process.
(§3) Excitation wavelength: 780 nm for vigamox(moxifloxacin)
(§4) The bacteria were incubated under the following condition.
pseudomonas-nutrient broth (nutrient medium)
(§5) 1. A bacteria stock was put in a medium of 3 mL and cultured after overnight incubation (37° C. and 200 rpm).
(§6) 2. Here, 0.03 mL of the cultured bacteria stock was taken and put in a fresh medium of 3 mL, and then cultured (37° C. and 200 rpm) up to OD600=1.5.
3. […]
(§7) In order to compare fluorescence expression of hydrochloride moxifloxacin with auto-fluorescence expression of bacteria, fluorescence expression of bacteria (pseudomonas and staphylococcus) which are not applied with hydrochloride moxifloxacin was first photographed and intensity of the auto-fluorescence expression was recorded. Subsequently, the hydrochloride moxifloxacin was administered to the medium and then the intensity of the fluorescence expression after the incubation time was measured.

staphylococcus = experiment: multi-photon fluorescence in bacteria; format: cell-based
Protocol: as §1, §2, §3, §4
staphylococcus-lysogeny broth (LB medium)
as §5, §6
3. […]
as §7

emission wavelength expressed most strongly ([2]; two-photon emission spectrum) | light source wavelength with fluorescent signal stronger than other wavelengths ([2]; two-photon excitation spectrum, 700 nm to 800 nm measured) [nm] | Compound | excited light expressing the fluoroquinolone antibiotics (wavelength) [1] [nm] | fluorescence intensity in corneal endothelium layer versus auto-fluorescence ([3]; corneal endothelium layer, FIGS. 5E, 6E vs 4E) | intensity of fluorescence expression in cornea versus auto-fluorescence ([3]; laser power 30.8 mW, same as auto-fluorescence) | difference in signal intensity after versus before administering (pseudomonas) | fluorescence signal intensity after administering (pseudomonas; FIG. 18, before administering 9.5334 a.u.) [a.u.] | difference in signal intensity after versus before administering (staphylococcus) [times] | fluorescence signal intensity after administering (staphylococcus; FIG. 18, before administering 10.4277 a.u.) [a.u.]
about 520 nm | 700 | COc1c(N2CCNC(C)C2)c(F)cc2c(=O)c(C(=O)O)cn(C3CC3)c12 (stereo not drawn) [gatifloxacin] | 292 | higher than the fluorescence intensity of the auto-fluorescence expression | much larger than that of the auto-fluorescence expression |  |  |  | 
 |  | COc1c(N2C[C@@H]3CCCN[C@@H]3C2)c(F)cc2c(=O)c(C(=O)O)cn(C3CC3)c12 [hydrochloride moxifloxacin, moxifloxacin] |  |  |  | about 10 times | 101.2196 | 10 | 110.3189
